# Measurements as given in patent US20220401414A1, “TREATMENT AND PREVENTION OF A NEURODEGENERATIVE DISORDER” (Inflazome Limited, priority 2019, published 2022).
# Test system: PFF-Synuclein model of Parkinson's disease
# Experiment: Study H: LC-MS/MS quantification of striatal dopamine and metabolites in the PFF-Synuclein mouse model
# Assay type: in vivo, C57BL6 mice
# Details: ipsilateral striatum, 12 months
# Source text: To determine the oral efficacy of the compound of formula (I) in a chronic progressive model of Parkinson's disease (PD), the preformed fibrils (PFF) mouse model, using a prophylactic and therapeutic dosing schedule.
# 8-week-old C57BL6 male mice (obtained from ARC, Perth, Australia) were housed under a 12-h light cycle in a SPF climate-controlled facility with food and water provided ad libitum for two weeks prior to study initiation. The compound of formula (I) (or water alone for control animals) was administrated to mice in drinking water at 0.3 mg/ml. Animals were separated into the groups described in Table 9, with ten animals initiated in each cohort. For prophylactic dosing, treatment commenced one day prior to PFF-Synuclein injection. For therapeutic dosing, treatment commenced 4 months after disease induction with PFF-Synuclein.
# Recombinant human a-synuclein was obtained from rPeptide Inc., and in vitro fibril generation was performed with a final concentration of 2 mg/ml in phosphate-buffered saline (PBS) by incubation at 37° C. with agitation in an orbital mixer (400 rpm) for 7 days with daily cycles of sonication used to break down fibrillar aggregates as outlined in previously published reports (see Luk et al., Science, 2012, vol. 338(6109), pp. 949-53; and Zhang et al., Methods Mol. Biol., 2019, vol. 1948, pp. 45-57, which are incorporated in their entirety herein by reference). The generation of fibrillar α-synuclein species was confirmed by transmission electron microscopy and Thioflavin T fluorescence prior to use.
# . The lesion was performed using a 5 μl Hamilton syringe to deliver either vehicle or human PFF-Synuclein (8 μg) at the following coordinates relative to bregma: AP: +0.5 mm; ML: −2.0 mm; DV: −3.0 mm into the right dorsal striatum according to the stereotaxic atlas (“The mouse brain in stereotaxic coordinates” by Paxinos and Franklin, 1997). After drilling a 1 mm burr-hole in the skull, a 2 μl volume of solution was infused at the target site at the rate of 0.2 μl per minute. The needle was held in place for at least 5 minutes after injection to minimize retrograde flow along the needle tract. […]
# At 12 months mice were sacrificed and striatal tissue was micro-dissected, weighed and snap-frozen at −80° C. […] Striatal dopamine (DA) and its metabolites (DOPAC and HVA) were quantified in their stable derivative form in the presence of internal standard 3,4-dihydroxybenzylamine (DHBA) using highly sensitive liquid chromatography-tandem mass spectrometry (LC-MS/MS) as described previously (Park et al., Biol. Pharm. Bull., 2013, vol. 36(2), pp. 252-8). […] For quantitation, one transition per analyte was monitored and two transitions per analyte were monitored for qualitative purposes.
# [1] = prophylactic and therapeutic treated mice
compound,measurement,setting,value
CC(C)n1ccc(S(=O)(=O)NC(=O)Nc2c3c(cc4c2CCC4)CCC3)n1 [compound of formula (I)],striatal DOPAC compared to the untreated PFF mice,[1],significantly higher
same,striatal HVA compared to the untreated PFF mice,[1],significantly higher
same,striatal dopamine concentrations compared with untreated PFF-syn mice,"prophylactic, P<0.02",significantly higher striatal dopamine concentrations
same,striatal dopamine concentrations compared with untreated PFF-syn mice,"therapeutic, P<0.05",significantly higher striatal dopamine concentrations
